Converted amounts (≈) assume the structure as drawn. Some results are limits rather than exact numbers.

Data set [1] addresses T1, Poly [ADP-ribose] polymerase tankyrase-2 (Homo sapiens, UniProt Q9H2K2).
T1 sequence (Q9H2K2 whole entry): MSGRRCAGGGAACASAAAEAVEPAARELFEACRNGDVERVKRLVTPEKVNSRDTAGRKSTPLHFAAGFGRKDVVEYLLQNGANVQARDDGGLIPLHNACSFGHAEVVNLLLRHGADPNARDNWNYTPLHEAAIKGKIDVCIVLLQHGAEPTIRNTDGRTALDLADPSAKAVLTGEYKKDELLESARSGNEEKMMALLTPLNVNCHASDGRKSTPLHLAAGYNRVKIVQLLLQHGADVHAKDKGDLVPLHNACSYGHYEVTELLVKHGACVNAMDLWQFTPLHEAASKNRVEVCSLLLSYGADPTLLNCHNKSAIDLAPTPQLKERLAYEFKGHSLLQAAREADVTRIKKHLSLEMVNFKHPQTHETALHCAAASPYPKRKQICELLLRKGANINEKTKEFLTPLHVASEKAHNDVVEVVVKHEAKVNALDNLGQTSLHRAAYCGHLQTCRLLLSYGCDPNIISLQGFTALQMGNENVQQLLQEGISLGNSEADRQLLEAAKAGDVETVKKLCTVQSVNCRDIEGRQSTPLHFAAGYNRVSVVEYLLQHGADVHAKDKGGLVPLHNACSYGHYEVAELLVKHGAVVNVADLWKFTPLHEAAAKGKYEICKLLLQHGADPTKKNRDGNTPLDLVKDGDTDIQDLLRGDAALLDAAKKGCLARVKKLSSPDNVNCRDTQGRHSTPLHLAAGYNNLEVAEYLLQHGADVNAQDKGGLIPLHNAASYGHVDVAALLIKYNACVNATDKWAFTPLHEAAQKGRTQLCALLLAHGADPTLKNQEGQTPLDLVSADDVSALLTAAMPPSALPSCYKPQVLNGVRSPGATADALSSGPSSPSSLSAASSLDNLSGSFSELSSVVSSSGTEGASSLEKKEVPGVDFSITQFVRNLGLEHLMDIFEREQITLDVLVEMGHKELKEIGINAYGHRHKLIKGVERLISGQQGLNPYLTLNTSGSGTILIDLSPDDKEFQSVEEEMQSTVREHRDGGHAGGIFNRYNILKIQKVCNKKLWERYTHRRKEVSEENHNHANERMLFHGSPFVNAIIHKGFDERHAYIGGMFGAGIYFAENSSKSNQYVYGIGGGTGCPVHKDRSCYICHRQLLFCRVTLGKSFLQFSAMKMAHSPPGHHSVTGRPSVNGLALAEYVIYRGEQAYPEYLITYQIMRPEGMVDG
The experiment in a line: Inhibition of TNKS2 (unknown origin).

The target of data set [2] is T2, Poly [ADP-ribose] polymerase 1 (Homo sapiens, UniProt P09874). In words: Inhibition of PARP1 (unknown origin).
T2 sequence (P09874 whole entry): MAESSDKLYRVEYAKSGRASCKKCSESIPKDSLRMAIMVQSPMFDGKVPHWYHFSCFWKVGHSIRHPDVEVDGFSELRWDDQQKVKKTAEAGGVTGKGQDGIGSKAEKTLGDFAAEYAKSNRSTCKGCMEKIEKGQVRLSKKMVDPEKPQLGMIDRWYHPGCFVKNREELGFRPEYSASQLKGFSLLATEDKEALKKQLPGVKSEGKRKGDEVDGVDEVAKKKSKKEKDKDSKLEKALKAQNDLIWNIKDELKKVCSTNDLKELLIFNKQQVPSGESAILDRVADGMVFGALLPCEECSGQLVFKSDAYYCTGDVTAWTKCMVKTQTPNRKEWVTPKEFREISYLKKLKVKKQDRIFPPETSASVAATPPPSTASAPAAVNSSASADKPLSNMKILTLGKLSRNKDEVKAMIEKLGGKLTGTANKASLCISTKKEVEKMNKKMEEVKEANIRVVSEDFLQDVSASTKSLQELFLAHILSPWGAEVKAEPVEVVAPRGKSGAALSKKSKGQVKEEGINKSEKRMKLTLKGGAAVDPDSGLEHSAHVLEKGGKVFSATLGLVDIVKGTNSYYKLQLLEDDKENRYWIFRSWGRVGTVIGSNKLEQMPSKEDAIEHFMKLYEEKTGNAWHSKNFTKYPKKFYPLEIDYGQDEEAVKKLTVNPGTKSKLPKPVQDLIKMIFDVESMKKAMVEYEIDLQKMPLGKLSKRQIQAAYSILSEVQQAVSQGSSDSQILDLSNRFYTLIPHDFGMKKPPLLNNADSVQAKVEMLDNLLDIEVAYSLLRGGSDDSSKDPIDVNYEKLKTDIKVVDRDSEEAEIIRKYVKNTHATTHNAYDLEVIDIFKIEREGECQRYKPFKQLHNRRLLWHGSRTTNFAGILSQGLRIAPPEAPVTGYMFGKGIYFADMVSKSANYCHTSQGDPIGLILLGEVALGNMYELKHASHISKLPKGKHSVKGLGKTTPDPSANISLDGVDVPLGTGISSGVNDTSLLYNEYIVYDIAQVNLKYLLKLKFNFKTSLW
The target in data set [3] is T3, Poly [ADP-ribose] polymerase tankyrase-1 (Homo sapiens, UniProt O95271).
T3 sequence (O95271 whole entry): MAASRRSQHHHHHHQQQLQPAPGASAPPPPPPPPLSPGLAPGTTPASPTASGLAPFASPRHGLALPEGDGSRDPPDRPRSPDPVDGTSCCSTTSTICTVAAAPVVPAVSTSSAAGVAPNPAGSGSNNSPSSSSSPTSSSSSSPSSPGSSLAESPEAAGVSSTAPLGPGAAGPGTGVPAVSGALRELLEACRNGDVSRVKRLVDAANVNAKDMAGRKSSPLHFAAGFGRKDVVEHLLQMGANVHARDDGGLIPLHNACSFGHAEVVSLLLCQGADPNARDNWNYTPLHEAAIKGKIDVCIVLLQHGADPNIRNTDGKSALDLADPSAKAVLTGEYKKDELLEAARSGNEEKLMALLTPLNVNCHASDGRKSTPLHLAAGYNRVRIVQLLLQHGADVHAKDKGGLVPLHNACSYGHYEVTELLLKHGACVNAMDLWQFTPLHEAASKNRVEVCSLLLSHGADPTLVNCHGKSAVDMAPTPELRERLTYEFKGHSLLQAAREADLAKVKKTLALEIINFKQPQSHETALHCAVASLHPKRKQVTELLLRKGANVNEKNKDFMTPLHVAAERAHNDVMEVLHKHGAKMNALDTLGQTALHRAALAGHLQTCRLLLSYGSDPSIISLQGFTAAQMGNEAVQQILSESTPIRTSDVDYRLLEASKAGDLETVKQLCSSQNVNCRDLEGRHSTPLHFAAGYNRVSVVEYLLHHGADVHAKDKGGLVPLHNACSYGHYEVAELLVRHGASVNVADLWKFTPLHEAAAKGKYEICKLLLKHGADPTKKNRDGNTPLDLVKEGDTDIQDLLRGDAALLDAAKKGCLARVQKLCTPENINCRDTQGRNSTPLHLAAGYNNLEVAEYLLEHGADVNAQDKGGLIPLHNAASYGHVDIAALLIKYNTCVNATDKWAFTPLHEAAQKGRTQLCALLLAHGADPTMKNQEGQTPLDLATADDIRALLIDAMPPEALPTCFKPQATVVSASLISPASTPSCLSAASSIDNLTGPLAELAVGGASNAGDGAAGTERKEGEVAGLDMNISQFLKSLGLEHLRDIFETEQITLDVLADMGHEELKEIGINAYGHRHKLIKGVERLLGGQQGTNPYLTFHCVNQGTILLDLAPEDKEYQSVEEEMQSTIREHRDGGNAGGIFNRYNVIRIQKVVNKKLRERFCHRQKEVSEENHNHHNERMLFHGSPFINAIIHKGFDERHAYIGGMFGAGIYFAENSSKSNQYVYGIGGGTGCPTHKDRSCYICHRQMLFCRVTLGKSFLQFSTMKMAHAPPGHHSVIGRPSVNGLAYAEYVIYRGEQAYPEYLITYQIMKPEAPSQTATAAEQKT
The experiment in a line: Inhibition of TNKS1 (unknown origin).

Data set [4] can be described thus: Disruption of ARC5 domain of TNKS1 (unknown origin)/USP25 (unknown origin) protein interaction assessed as inhibition constant. Further details: species or system Homo sapiens.
Data set [5] relates to SW480. In words: Antitumor activity against human SW480 cells xenografted in mouse assessed as reduction in tumor size at 150 mg/kg, IP relative to control. It is filed as functional. Further details: scale not given: the % may be the effect or the level left. For orientation: In xenograft studies the graft and the host belong to different species.
In data set [6] the test system is SW480. The experiment in a line: Antitumor activity against human SW480 cells xenografted in mouse assessed as reduction in tumor size at 300 mg/kg, IP relative to control. It is filed as functional. The arrangement: scale not given: the % may be the effect or the level left.
Data set [7] can be described thus: Oral bioavailability in mouse relative to control. It is filed as ADME, organism-based. Conditions: in vivo.
In data set [8] the target is T1, Poly [ADP-ribose] polymerase tankyrase-2. In words: Binding affinity to ARC4 domain at TNKS2 (unknown origin) assessed as dissociation constant.
The nature of data set [9]: Antitumor activity against human MNNG/HOS cells xenografted in mouse assessed as decrease in tumor growth rate at 5 mg/kg, IT administered every other day for 12 days relative to control. It is filed as functional, HOS-TE85. The arrangement: scale not given: the % may be the effect or the level left. The note with it: time 12 day.
Data set [10] is described as follows: Toxicity in mouse xenografted with COLO 320DM cells assessed as reduction in body weight at 30 mg/kg, ip daily relative to control. It is filed as organism-based. The arrangement: scale not given: the % may be the effect or the level left. The note with it: in vivo.
Data set [11] is described as follows: Toxicity in mouse xenografted with COLO 320DM cells assessed as reduction in body weight at 60 mg/kg, po daily relative to control. It is filed as organism-based. The arrangement: scale not given: the % may be the effect or the level left. The note with it: in vivo.
The nature of a further data set: physchem. The note with it: aqueous, pH 7.4.
Data set [12] can be described thus: Stability in mouse liver microsomes assessed as compound remaining measured after 30 mins relative to control. It is filed as ADME, Microsome. Conditions: read-out: Stability. For orientation: Microsomes from liver hold many membrane-bound enzymes, among them those of drug oxidation.
For data set [13], the target named is T4, Poly [ADP-ribose] polymerase 2 (Homo sapiens, UniProt Q9UGN5). The experiment in a line: Inhibition of PAPR2 (unknown origin).
T4 sequence (Q9UGN5 whole entry): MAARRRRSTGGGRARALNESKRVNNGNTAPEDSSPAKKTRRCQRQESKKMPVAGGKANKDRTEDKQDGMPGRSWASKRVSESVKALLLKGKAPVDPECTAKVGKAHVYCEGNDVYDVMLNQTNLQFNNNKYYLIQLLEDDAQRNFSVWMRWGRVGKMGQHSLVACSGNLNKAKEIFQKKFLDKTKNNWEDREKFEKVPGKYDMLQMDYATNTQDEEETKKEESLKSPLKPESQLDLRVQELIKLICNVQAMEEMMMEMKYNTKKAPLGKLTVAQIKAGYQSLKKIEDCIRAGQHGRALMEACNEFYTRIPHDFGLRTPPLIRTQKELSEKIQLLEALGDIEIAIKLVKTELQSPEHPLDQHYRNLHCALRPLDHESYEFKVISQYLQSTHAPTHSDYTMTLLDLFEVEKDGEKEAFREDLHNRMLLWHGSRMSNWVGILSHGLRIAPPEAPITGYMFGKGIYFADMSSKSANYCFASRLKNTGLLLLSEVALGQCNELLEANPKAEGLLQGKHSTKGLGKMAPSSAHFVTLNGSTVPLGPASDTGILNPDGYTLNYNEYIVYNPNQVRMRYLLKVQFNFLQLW
For data set [14], the target named is T2, Poly [ADP-ribose] polymerase 1. The experiment in a line: Inhibition of PARP1 (unknown origin) at 1 uM relative to control.
The target in data set [15] is T4, Poly [ADP-ribose] polymerase 2. In words: Inhibition of PARP2 (unknown origin) at 1 uM relative to control.
Data set [16] has as its target T5, Poly [ADP-ribose] polymerase tankyrase-1 (Homo sapiens) (UniProt O95271).
T5 sequence (whole entry): T3 sequence (O95271 whole entry)
In words: Inhibition of TNKS1 (unknown origin) at 1 uM relative to control.

The target in data set [17] is T6, Poly [ADP-ribose] polymerase tankyrase-2 (Homo sapiens) (UniProt Q9H2K2).
T6 sequence (whole entry): T1 sequence (Q9H2K2 whole entry)
In words: Inhibition of TNKS2 (unknown origin) at 1 uM relative to control.

What is called IC50 is the midpoint of a concentration-inhibition curve. For the compound `COc1ccc(-n2c(SCCCN3C(=O)c4cccc5cccc(c45)C3=O)nnc2-c2ccncc2)cc1`, half-maximal inhibition in [1] (IC50) required 15 nM.

Turning to `O=C(Nc1cccc2c(=O)[nH]ccc12)[C@H]1CCCNC1`, the values for the IC50 in data set [2], in data set [3] and in [1] were over 10000 nM, 9 nM and 3 nM, respectively.

In general, Ki refers to a measure of affinity in units of concentration, obtained from inhibition or displacement. For the compound `CCc1ccc(OCC(=O)Nc2sc(C)c(C)c2C(N)=O)c(F)c1`, in [4], the Ki came out at 20500 nM.

Regarding `COc1ccc(-n2c(SCc3nc(-c4ccc(C)cc4)no3)nnc2-c2ccncc2)cc1`, the Activity is on record as 33% with SW480 [5] and 35% with SW480 [6].

On to `COc1ccc(C2(CNC(=O)c3ccc(NC(=O)c4ccco4)cc3)CCOCC2)cc1`, for which the values for the IC50 in data set [2] and in data set [1] were 1800 nM and 1900 nM, respectively.

In general, bioavailability refers to dose-corrected exposure relative to a reference, in per cent. In [7], `C[C@@H]1CN(c2cc(F)c3c(c2)N(C)C(=O)C32CCN(c3nc4c(c(=O)[nH]3)CCCN4C)CC2)C[C@H](C)O1` registered a bioavailability of 100%.

Broadly, the Kd is the concentration at which binding is half-saturated. Regarding `CC(=O)N[C@@H](CCCNC(=N)N)C(=O)N[C@@H](CCC(=O)O)C(=O)N[C@H]1CCn2cc(nn2)CCCc2cn(nn2)CC[C@@H](C(=O)N[C@@H](CCC(=O)O)C(N)=O)NC(=O)CNC(=O)[C@H](CC(=O)O)NC(=O)CNC1=O`, in [8], the Kd came out at 600 nM.

Consider `O=C(Nc1cccc2cccnc12)c1ccc(N2C(=O)[C@@H]3[C@H](C2=O)[C@@H]2C=C[C@H]3C2)cc1`, for which the Activity in data set [9] came out at 73%.

For `CC(=O)N[C@@H](CCCNC(=N)N)C(=O)N[C@@H](CCC(=O)O)C(=O)N[C@H]1CCn2cc(nn2)-c2cc(C(=O)O)cc(c2)-c2cn(nn2)CC[C@@H](C(=O)N[C@@H](CCC(=O)O)C(N)=O)NC(=O)CNC(=O)[C@H](CC(=O)O)NC(=O)CNC1=O`, in [8], the Kd is 440 nM.

As to `CS(=O)(=O)c1ccc(-c2nnc(/C=C/c3nnc(-c4ccc(C#N)cc4)o3)n2-c2ccccc2Cl)nc1`, the Activity in data set [10] and in data set [11] was over 15% in each case.

Usually solubility stands for how much of the substance goes into solution per volume. Compound `COc1ccccc1N1CCN(c2nc3c(c(=O)[nH]2)CCCC3)CC1` yielded a solubility in “physchem” of 10 µg/mL (≈ 29.4 µM). The same compound had an IC50 in data set [2] of over 100000 nM. In data set [12], the remaining at 0.5 h was 0%.

With `Cc1cc(NCCc2ccc(O)cc2)c2nncn2n1`, the concentration for half-maximal inhibition (IC50) in data set [13] and in data set [2] was over 10000 nM in each case.

In general, inhibition refers to the drop in the measured response relative to a control, in per cent. Take `COc1cc2ncnc(N3CCC(CN4Cc5ccccc5N(c5ccc(F)c(C#N)c5)C4=O)CC3)c2cc1OC`: the inhibition is 0% in data set [14], 0% in [15], 100% in data set [16] and 100% in [17].

(Values after ChEMBL document CHEMBL5120795, “Small-Molecule Inhibitors of Tankyrases as Prospective Therapeutics for Cancer” (J Med Chem, 2022).)
